# Experimental data as given in article PMC6264418, “t-Bu2SiF-Derivatized D2-Receptor Ligands: The First SiFA-Containing Small Molecule Radiotracers for Target-Specific PET-Imaging” (Molecules, 2011).
# Where two headings read alike, the source gives them in different places.
# What was measured:
# human D2 receptor [1] = biological target: T1, human D2 receptor (Homo sapiens, UniProt P14416); set-up: method as in PMID 12570798; details: D2-receptor antagonists, literature affinity; cited from earlier work
# T1 construct: expressed in transfected cells
# human D2 receptor [2] = biological target: T1, human D2 receptor; assay: [3H]spiperone binding assay, dopamine D2-receptor affinity (HEK293 cells stably expressing D2 receptors)
# Description: Source of the dopamine-D2-receptors was cell line HEK293 which expresses the D2 receptors stably. […] All substances were evaluated in 3 independent competition experiments in six concentrations (each in triplicate). The Ki-values were calculated from the IC50-values according to Cheng-Prusoff as described in detail in [23].
# [3] = ratio of Ki values at the D2 receptor
# T1 sequence (P14416 whole entry): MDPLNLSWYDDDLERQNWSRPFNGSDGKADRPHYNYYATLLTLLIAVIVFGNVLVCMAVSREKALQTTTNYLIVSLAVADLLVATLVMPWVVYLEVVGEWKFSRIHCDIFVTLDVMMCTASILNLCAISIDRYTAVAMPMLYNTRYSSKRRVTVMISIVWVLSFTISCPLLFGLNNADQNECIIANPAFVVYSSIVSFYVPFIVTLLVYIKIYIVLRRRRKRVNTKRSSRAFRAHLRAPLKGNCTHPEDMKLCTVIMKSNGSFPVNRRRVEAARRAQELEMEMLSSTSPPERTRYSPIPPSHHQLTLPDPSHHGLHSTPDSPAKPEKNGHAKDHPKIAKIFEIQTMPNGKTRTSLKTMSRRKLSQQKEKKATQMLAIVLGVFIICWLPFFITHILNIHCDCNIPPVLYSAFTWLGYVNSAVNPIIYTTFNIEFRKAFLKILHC
Structure (SMILES),D2-receptor affinity range (human D2 receptor [1]),Ki (human D2 receptor [2]) [nM],factor by which affinity is reduced compared to raclopride (human D2 receptor [2]; [3]),factor by which affinity is reduced compared to fallypride (1) (human D2 receptor [2]; [3]),further results
"C=CCN1CCC[C@H]1CNC(=O)c1cc(CCCF)cc(OC)c1OC [Fallypride, fallypride, reference compound]",picomolar,–,–,–,"Ki (human D2 receptor [2]; D2-receptor affinity, [3H]spiperone competition, 3 independent experiments, Ki from IC50 by Cheng-Prusoff, read-out: Ki (nM ± SEM)): 0.0965 ± 0.0153 nM"
"CCN1CCC[C@H]1CNC(=O)c1c(O)c(Cl)cc(Cl)c1OC [Raclopride, raclopride]",nanomolar,–,–,–,–
"C=CCN1CCC[C@H]1CNC(=O)c1ccc([Si](F)(C(C)(C)C)C(C)(C)C)cc1 [SiFA-DDMFP, 4c, (S)-N-((1-Allylpyrrolidine-2-yl)methyl)-4-(di-tert-butylfluorosilyl) benzamide]",–,62.7 ± 16.9,–,–,–
"C=CCN1CCC[C@H]1CNC(=O)c1cc([Si](F)(C(C)(C)C)C(C)(C)C)ccc1OC [SiFA-DMFP, 4a, (S)-N-((1-Allylpyrrolidine-2-yl)methyl)-5-(di-tert-butylfluorosilyl)-2-methoxybenzamide]",–,13.6 ± 4.3,11,–,factor by which affinity is reduced compared to desmethoxyfallypride (2) (human D2 receptor [2]; [3]): 22
"C=CCN1CCC[C@H]1CNC(=O)c1cc([Si](F)(C(C)(C)C)C(C)(C)C)cc(OC)c1OC [SiFA-FP, 4b, (S)-N-((1-Allylpyrrolidine-2-yl)methyl)-5-(di-tert-butylfluorosilyl)-2,3-dimethoxybenzamide]",–,33 ± 7.6,–,342,–
"C=CCN1CCCC1CNC(=O)c1cc(CCCS[C@H]2CC(=O)N(c3ccc([Si](F)(C(C)(C)C)C(C)(C)C)cc3)C2=O)cc(OC)c1OC (stereo partly drawn) [SiFA-M-FP, 5, (S)-N-((1-Allylpyrrolidin-2-yl)methyl)-5-(3-(1-(4-(di-tert-butylfluorosilyl)phenyl)-2,5-dioxopyrrolidin-3-ylthio)propyl)-2,3-dimethoxybenzamide]",–,4.21 ± 0.41,3.5,44,–
